The values below are quoted from earlier work in patent US12091679B2, “Storage method and banking system of NT cell” (SUNGKWANG MEDICAL FOUNDATION, priority 2015, dated 2024).

The subject of this data set is various animal cancer models.
On to `Cc1cc(C)c(CNC(=O)c2cc(-c3ccc(CN4CCOCC4)cc3)cc3c2cnn3C2CCCC2)c(=O)[nH]1` [EPZ005687], for which the anticancer activity entry is “show anticancer activity”.

For the compound `CC[C@H](C)n1cc(C)c2c(C(=O)NCc3c(C)cc(C)[nH]c3=O)cc(-c3ccc(N4CCNCC4)nc3)cc21` [GSK126], the anticancer activity result is on record as “show anticancer activity”. Turning to `CC(C)N(C[C@H]1O[C@@H](n2cnc3c(N)ncnc32)[C@H](O)[C@@H]1O)[C@H]1C[C@@H](CCc2nc3cc(C(C)(C)C)ccc3[nH]2)C1` [EPZ5676], the anticancer activity result was “show anticancer activity”.
